Source: ChEMBL document CHEMBL1129670, “Synthesis and structure-activity relationships of N-propyl-N-(4-pyridinyl)-1H-indol-1-amine (besipirdine) and related analogs as potential therapeutic agents for Alzheimer's disease” (J Med Chem, 1996)

What was measured:
Mus musculus = experiment: Antagonistic activity against Scopolamine induced behavioral deficits in mice at dose 0.08 mg/kg sc; assay type: functional; conditions: route subcutaneous
[1] = molecular target: T1, Adrenergic receptor alpha-2 (Rattus norvegicus, UniProt P22086+P19328+P22909); experiment: Inhibitory activity against [3H]clonidine binding to Alpha-2 adrenergic receptor in rat cortex
T1 sequence (P22086 whole entry): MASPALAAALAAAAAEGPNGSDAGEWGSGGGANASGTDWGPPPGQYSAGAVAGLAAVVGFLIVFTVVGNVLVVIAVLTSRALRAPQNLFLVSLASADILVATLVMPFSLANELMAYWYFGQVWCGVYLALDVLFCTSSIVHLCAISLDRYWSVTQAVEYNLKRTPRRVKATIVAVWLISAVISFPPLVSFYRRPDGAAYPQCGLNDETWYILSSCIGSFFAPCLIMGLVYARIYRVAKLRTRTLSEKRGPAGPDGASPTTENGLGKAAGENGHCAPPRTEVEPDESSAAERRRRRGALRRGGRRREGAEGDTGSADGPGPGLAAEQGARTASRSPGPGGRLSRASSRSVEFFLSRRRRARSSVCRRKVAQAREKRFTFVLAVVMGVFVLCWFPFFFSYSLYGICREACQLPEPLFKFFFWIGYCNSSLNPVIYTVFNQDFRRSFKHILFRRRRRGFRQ
T1 sequence (P19328 whole entry): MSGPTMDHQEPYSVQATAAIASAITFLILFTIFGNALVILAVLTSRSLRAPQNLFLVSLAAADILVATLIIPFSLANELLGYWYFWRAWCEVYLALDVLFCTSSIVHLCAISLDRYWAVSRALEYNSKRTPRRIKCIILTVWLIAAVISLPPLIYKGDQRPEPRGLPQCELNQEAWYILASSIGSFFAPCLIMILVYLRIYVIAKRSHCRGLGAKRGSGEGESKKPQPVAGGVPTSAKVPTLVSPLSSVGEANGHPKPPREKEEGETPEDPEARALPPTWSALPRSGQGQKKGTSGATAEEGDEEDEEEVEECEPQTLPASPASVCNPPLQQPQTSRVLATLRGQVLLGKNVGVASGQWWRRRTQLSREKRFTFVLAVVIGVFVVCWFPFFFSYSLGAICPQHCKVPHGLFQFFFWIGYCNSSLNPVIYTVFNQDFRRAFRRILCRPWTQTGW
T1 sequence (P22909 whole entry): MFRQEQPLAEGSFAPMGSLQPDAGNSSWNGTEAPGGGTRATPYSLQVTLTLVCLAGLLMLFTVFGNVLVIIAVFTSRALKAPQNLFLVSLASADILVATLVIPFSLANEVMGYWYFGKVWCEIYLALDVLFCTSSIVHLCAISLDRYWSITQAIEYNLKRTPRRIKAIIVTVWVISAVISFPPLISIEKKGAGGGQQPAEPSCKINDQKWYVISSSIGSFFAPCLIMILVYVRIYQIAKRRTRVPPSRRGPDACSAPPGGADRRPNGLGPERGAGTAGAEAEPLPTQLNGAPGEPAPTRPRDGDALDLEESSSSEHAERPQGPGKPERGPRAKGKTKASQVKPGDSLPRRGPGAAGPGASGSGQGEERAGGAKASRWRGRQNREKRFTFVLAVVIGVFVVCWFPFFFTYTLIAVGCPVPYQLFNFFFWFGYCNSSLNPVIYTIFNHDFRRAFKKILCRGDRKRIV

[2] = molecular target: Muscarinic acetylcholine receptor; assay type: cell membranes, Membrane
Description: Inhibition of [3H]quinuclidinyl benzilate (QNB) binding from rat forebrain membranes in the absence of Zn

[3] = molecular target: T2, Adrenergic receptor alpha-1 (Rattus norvegicus, UniProt P15823+P23944+P43140); experiment: Inhibitory activity against [3H]WB-4101 binding to Alpha-1 adrenergic receptor in rat whole brain membrane; assay type: cell membranes
T2 sequence (P15823 whole entry): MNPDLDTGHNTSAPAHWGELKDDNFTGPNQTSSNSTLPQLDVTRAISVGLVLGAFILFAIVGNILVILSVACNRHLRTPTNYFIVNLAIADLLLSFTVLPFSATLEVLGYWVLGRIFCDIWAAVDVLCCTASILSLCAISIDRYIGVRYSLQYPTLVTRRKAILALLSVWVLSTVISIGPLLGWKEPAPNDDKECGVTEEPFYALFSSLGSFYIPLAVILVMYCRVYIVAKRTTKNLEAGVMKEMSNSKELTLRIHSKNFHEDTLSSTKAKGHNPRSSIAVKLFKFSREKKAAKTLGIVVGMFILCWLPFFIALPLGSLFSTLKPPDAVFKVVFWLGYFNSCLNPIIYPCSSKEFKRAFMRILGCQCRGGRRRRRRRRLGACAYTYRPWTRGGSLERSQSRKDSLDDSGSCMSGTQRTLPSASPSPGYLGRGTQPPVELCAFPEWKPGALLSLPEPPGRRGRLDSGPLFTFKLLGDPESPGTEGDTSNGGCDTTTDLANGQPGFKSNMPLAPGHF
T2 sequence (P23944 whole entry): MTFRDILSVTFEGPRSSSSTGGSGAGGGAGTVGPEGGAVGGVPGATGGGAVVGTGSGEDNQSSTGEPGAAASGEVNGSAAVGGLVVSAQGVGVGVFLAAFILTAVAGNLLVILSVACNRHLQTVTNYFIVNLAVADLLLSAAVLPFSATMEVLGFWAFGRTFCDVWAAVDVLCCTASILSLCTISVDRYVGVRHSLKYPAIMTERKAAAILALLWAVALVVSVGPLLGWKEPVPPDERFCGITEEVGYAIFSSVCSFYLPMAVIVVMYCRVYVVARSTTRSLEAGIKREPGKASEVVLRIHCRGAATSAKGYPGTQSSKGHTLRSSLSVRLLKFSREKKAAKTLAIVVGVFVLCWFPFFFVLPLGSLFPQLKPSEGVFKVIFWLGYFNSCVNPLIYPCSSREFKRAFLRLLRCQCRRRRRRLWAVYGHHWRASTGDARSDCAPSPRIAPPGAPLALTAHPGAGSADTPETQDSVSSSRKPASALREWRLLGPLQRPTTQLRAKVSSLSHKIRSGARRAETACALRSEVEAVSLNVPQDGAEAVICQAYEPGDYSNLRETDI
T2 sequence (P43140 whole entry): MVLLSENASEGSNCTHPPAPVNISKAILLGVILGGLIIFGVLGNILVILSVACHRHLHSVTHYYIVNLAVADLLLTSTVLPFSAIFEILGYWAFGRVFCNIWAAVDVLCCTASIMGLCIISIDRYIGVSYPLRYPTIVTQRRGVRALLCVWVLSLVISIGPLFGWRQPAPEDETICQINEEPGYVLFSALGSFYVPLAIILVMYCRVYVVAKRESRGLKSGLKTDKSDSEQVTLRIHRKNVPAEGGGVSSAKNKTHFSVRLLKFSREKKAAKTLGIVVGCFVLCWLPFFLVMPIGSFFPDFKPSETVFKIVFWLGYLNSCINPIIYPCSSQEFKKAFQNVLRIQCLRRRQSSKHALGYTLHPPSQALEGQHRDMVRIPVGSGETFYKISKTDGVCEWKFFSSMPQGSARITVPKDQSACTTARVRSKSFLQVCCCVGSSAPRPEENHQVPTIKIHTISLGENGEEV

SMILES | Response (Mus musculus) [%] | IC50 [1] [µM] | IC50 [2] [µM] | IC50 [3] [µM]
CN(c1ccncc1)n1ccc2ccccc21 | 33 | 0.024 | 9 | 1.2
c1ccc2c(c1)ccn2Nc1ccncc1 | 20 | 0.008 | 40 | 0.51
CCCN(c1ccncc1)n1ccc2ccccc21 [BESIPIRDINE] | 33 | 0.33 | 3 | 10
